# Source: patent US5194605A, “Cyclic renin inhibitors containing 2-substituted (3S,4S)-4-amino-5-cyclohexyl-3-hydroxy pentanoic acid, 2-substituted (3S,4S)-5-cyclohexyl-3,4-di-hydroxy pentanoic acid or 2-substituted (4S,5S)-5-amino-6-cyclohexyl-4-hydroxyhexanoic acid or its analogs” (Merck & Co., Inc., priority 1991, dated 1993)
# Where two headings read alike, the source gives them in different places. Square brackets hold non-standard residues; d marks the D form. Peptide text beside a SMILES is read from it. * marks the point of attachment. Sta = CC(C)C[C@H](N)[C@@H](O)CC(=O)O; Isovaleryl = CC(C)CC(=O)*
# Columns and labels:
# [1] = amide bond, DPPA, Et3N, DMF, 1.75 mM, 4.0 °C
# [2] = tested on: conscious sodium-deficient Rhesus monkeys; assay: intravenous evaluation of renin inhibitors in conscious sodium-deficient Rhesus monkeys (blood pressure lowering); assay type: in vivo, Rhesus monkey; settings: i.v. bolus, mean arterial pressure
# Excerpt: The following methods were used for in vivo evaluation of the renin inhibitors of Formula I: Intravenous evaluation of renin inhibitors in concious sodium-deficient Rhesus monkeys: Rhesus monkeys, male and female, weighing 2.6-4.5 Kg, were surgically prepared with chronic arterial and venous catheters and vascular access ports for direct monitoring of mean arterial pressure (MAP) and heart rate (HR). The animals were maintained on a low sodium diet (1.2 mmol Na/day) plus friut for a week, and administered LASIX (furosemide) at 2.5 mg/Kg, intramuscularly the evening prior to the experiment. […] The inhibitors were administered by bolus injection using 0.5% acetic acid-5% dextrose in water as the vehicle (0.4 ml/Kg), and MAP and HR were measured. […] PRA was determined as described above. […] A projected ED50 dose for each inhibitor was calculated using the following furmula: ED50 (Test Inhibitor, umoles/Kg)=ED50 (SCRIP)×[IC50 (Test Inhibitor)/IC50 (SCRIP)], where the IC50 values were determined against human plasma renin. […] Percent inhibition of monkey PRA, changes in MAP and HR were calculated and plotted against time. […] The inhibitors were administered orally as a solution (2.5 ml/Kg) in 0.1M citric acid, and MAP and HR were measured over time. […] Percent inhibition of primate PRA and peak changes in MAP and HR were calculated. […]
smiles,measurement,setting,value
CC[C@H](C)CNC(=O)[C@H]1CCCNC(=O)CC[C@H](NC(=O)OC(C)(C)C)C(=O)N[C@@H](CC2CCCCC2)[C@H]1O,"ring closure, yield of all isomers","[1]; from CC[C@H](C)CNC(=O)[C@@H](CCCN)[C@H](O)[C@H](CC1CCCCC1)NC(=O)[C@H](CCC(=O)O)NC(=O)OC(C)(C)C, 145.0 h",18%
COC(=O)[C@H]1CCCCNC(=O)CC[C@H](NC(=O)OC(C)(C)C)C(=O)N[C@@H](CC2CCCCC2)[C@H]1O,"ring closure, yield of all isomers","[1]; from COC(=O)[C@@H](CCCCN)[C@H](O)[C@H](CC1CCCCC1)NC(=O)[C@H](CCC(=O)O)NC(=O)OC(C)(C)C, 120.3 h",62%
"CC(C)CC(=O)N[C@@H](Cc1cnc[nH]1)C(=O)N1CCC[C@H]1C(=O)N[C@@H](Cc1ccccc1)C(=O)N[C@@H](Cc1cnc[nH]1)C(=O)N[C@@H](CC(C)C)[C@@H](O)CC(=O)N[C@@H](CC(C)C)C(=O)N[C@@H](Cc1ccccc1)C(N)=O [SCRIP, Iva-His-Pro-Phe-His-Sta-Leu-Phe-NH2] (Isovaleryl-HPFH[Sta]LF-NH2)",ED50 (i.v. dose required to lower blood pressure by 50% of the maximal response),[2],0.039 µmol/kg
CC[C@H](C)CNC(=O)[C@H]1CCCCNC(=O)CC[C@H](NC(=O)OC(C)(C)C)C(=O)N[C@@H](CC2CCCCC2)[C@H]1O,"ring closure, yield of all isomers","[1]; from CC[C@H](C)CNC(=O)[C@@H](CCCCN)[C@H](O)[C@H](CC1CCCCC1)NC(=O)[C@H](CCC(=O)O)NC(=O)OC(C)(C)C, 120.3 h, 2 steps",62%
